Active and inactive are the calls of the source. The rule behind the calls is not given here.

This data set relates to rodent lifetime carcinogenesis bioassay, tumor incidence TD50. Kind of data set: chronic cancer bioassays in animals – CPDB, compiled studies (AID 1745844).

As usually defined, the TD50 is the 50% point of the dose-response relation for the toxic effect studied. Regarding `C=C1C/C(=C/C)C(=O)O[C@@H]2CCN3CC=C(COC(=O)[C@@]1(O)CO)[C@H]23`, the TD50 runs as follows: (mouse, strain B6C3F1, females, by gavage, site: all sites, lesion: hemangioma + hemangiosarcoma, dosed 105 weeks, study length 105 weeks) 10 mg/kg/day; (mouse, strain B6C3F1, females, by gavage, site: any site (literature study), lesion: several types, types named in the paper, dosed 105 weeks, study length 105 weeks) 0.691 mg/kg/day; (mouse, strain B6C3F1, females, by gavage, site: lung, lesion: alveolar/bronchiolar adenoma + alveolar/bronchiolar carcinoma, dosed 105 weeks, study length 105 weeks) 1.99 mg/kg/day; (mouse, strain B6C3F1, females, by gavage, site: lung, lesion: alveolar/bronchiolar adenoma, dosed 105 weeks, study length 105 weeks) 2.68 mg/kg/day; (mouse, strain B6C3F1, males, by gavage, site: all sites, lesion: hemangiosarcoma, dosed 104 weeks, study length 104 weeks) 1.63 mg/kg/day; (mouse, strain B6C3F1, males, by gavage, site: any site (literature study), lesion: several types, types named in the paper, dosed 104 weeks, study length 104 weeks) 1.09 mg/kg/day. The TD50 (mouse, strain B6C3F1, males, by gavage, site: liver, lesion: hemangiosarcoma, dosed 104 weeks, study length 104 weeks) was 1.96 mg/kg/day; the TD50 (mouse, strain B6C3F1, males, by gavage, site: lung, lesion: alveolar/bronchiolar adenoma + alveolar/bronchiolar carcinoma, dosed 104 weeks, study length 104 weeks) stood at 5.57 mg/kg/day; the TD50 (rat, strain Fischer 344, females, by gavage, site: all sites + liver, lesion: mononuclear-cell leukemia + hemangiosarcoma + hepatocellular adenoma, dosed 102 weeks, study length 104 weeks) worked out at 0.143 mg/kg/day; the TD50 (rat, strain Fischer 344, females, by gavage, site: all sites + liver, lesion: mononuclear-cell leukemia + hepatocellular adenoma, dosed 102 weeks, study length 104 weeks) amounted to 0.234 mg/kg/day; the TD50 (rat, strain Fischer 344, females, by gavage, site: all sites, lesion: hemangiosarcoma, dosed 102 weeks, study length 104 weeks) is 0.446 mg/kg/day; the TD50 (rat, strain Fischer 344, females, by gavage, site: all sites, lesion: mononuclear-cell leukemia, dosed 102 weeks, study length 104 weeks) was 0.293 mg/kg/day. The TD50 reads like this: (rat, strain Fischer 344, females, by gavage, site: any site (literature study), lesion: several types, types named in the paper, dosed 102 weeks, study length 104 weeks) 0.0706 mg/kg/day; (rat, strain Fischer 344, females, by gavage, site: liver, lesion: hemangiosarcoma, dosed 102 weeks, study length 104 weeks) 0.457 mg/kg/day; (rat, strain Fischer 344, females, by gavage, site: liver, lesion: hepatocellular adenoma + hepatoblastoma + hepatocellular carcinoma, dosed 102 weeks, study length 104 weeks) 1.2 mg/kg/day; (rat, strain Fischer 344, females, by gavage, site: liver, lesion: hepatocellular adenoma + hepatocellular carcinoma, dosed 102 weeks, study length 104 weeks) 1.2 mg/kg/day; (rat, strain Fischer 344, females, by gavage, site: liver, lesion: hepatocellular adenoma, dosed 102 weeks, study length 104 weeks) 1.63 mg/kg/day; (rat, strain Fischer 344, females, by gavage, site: thyroid gland, lesion: c-cell adenoma + c-cell adenoma, bilateral, dosed 102 weeks, study length 104 weeks) 0.62 mg/kg/day. The TD50 reads like this: (rat, strain Fischer 344, males, by gavage, site: all sites + liver, lesion: mononuclear-cell leukemia + hemangiosarcoma + hepatocellular adenoma, dosed 71 weeks, study length 71 weeks) 0.0665 mg/kg/day; (rat, strain Fischer 344, males, by gavage, site: all sites + liver, lesion: mononuclear-cell leukemia + hepatocellular adenoma, dosed 71 weeks, study length 71 weeks) 0.179 mg/kg/day; (rat, strain Fischer 344, males, by gavage, site: all sites, lesion: mononuclear-cell leukemia, dosed 71 weeks, study length 71 weeks) 0.232 mg/kg/day; (rat, strain Fischer 344, males, by gavage, site: any site (literature study), lesion: several types, types named in the paper, dosed 71 weeks, study length 71 weeks) 0.0267 mg/kg/day; (rat, strain Fischer 344, males, by gavage, site: liver, lesion: hemangiosarcoma, dosed 71 weeks, study length 71 weeks) 0.0744 mg/kg/day; (rat, strain Fischer 344, males, by gavage, site: liver, lesion: hepatocellular adenoma + hepatoblastoma + hepatocellular carcinoma, dosed 71 weeks, study length 71 weeks) 0.584 mg/kg/day. Also, the TD50 by setting is: (rat, strain Fischer 344, males, by gavage, site: liver, lesion: hepatocellular adenoma, dosed 71 weeks, study length 71 weeks) 0.584 mg/kg/day; (rat, strain Fischer 344, males, by gavage, site: lung, lesion: alveolar/bronchiolar adenoma, dosed 71 weeks, study length 71 weeks) 0.528 mg/kg/day.
`CN(C)C=O`: the TD50 was 15800 mg/kg/day (inactive) (mouse, strain Charles River CD1, females, inhaled, site: liver, lesion: hepatocellular adenoma, dosed 78 weeks, study length 78 weeks); 3070 mg/kg/day (inactive) (mouse, strain Charles River CD1, males, inhaled, site: liver, lesion: hepatocellular carcinoma, dosed 78 weeks, study length 78 weeks); 2640 mg/kg/day (inactive) (rat, strain Charles River CD (Sprague-Dawley), males, inhaled, site: liver, lesion: hepatocellular adenoma, dosed 104 weeks, study length 104 weeks); 3340 mg/kg/day (inactive) (rat, strain Charles River CD (Sprague-Dawley), males, inhaled, site: liver, lesion: hepatocellular carcinoma, dosed 104 weeks, study length 104 weeks). Besides, the carcinogen call reads like this: (mouse, strain Charles River CD1, males, inhaled, site: liver, lesion: hepatocellular adenoma, dosed 78 weeks, study length 78 weeks) “negative (inactive)”; (rat, strain Charles River CD (Sprague-Dawley), females, inhaled, site: liver, lesion: hepatocellular adenoma, dosed 104 weeks, study length 104 weeks) “negative (inactive)”.
As to `Clc1ccc(C(c2ccccc2Cl)C(Cl)Cl)cc1` (configuration not stated), the TD50 runs as follows: (mouse, strain B6AKF1, females, oral dosing, site: any site (literature study), lesion: several types, types named in the paper, dosed 76 weeks, study length 76 weeks) 102 mg/kg/day; (mouse, strain B6AKF1, females, oral dosing, site: lung, lesion: adenoma, dosed 76 weeks, study length 76 weeks) 236 mg/kg/day; (mouse, strain B6AKF1, males, oral dosing, site: any site (literature study), lesion: several types, types named in the paper, dosed 76 weeks, study length 76 weeks) 187 mg/kg/day; (mouse, strain B6AKF1, males, oral dosing, site: lung, lesion: adenoma, dosed 76 weeks, study length 76 weeks) 414 mg/kg/day; (mouse, strain B6AKF1, males, oral dosing, site: lung, lesion: carcinoma, dosed 76 weeks, study length 76 weeks) 467 mg/kg/day; (mouse, strain B6C3F1, males, oral dosing, site: all sites, lesion: reticulum-cell sarcoma, dosed 76 weeks, study length 76 weeks) 82.1 mg/kg/day. For the same molecule, the TD50 (mouse, strain B6C3F1, males, oral dosing, site: any site (literature study), lesion: several types, types named in the paper, dosed 76 weeks, study length 76 weeks) is 38.5 mg/kg/day; the TD50 (mouse, strain B6C3F1, males, oral dosing, site: liver, lesion: hepatoma, dosed 76 weeks, study length 76 weeks) came out at 147 mg/kg/day; the TD50 (mouse, strain B6C3F1, males, oral dosing, site: lung, lesion: adenoma, dosed 76 weeks, study length 76 weeks) was determined as 467 mg/kg/day.
As to `Nc1nc(N)nc(-c2ccccc2)n1`, the TD50 is, setting by setting: (mouse, strain CD-1 HaM/ICR, females, in feed, site: any site (literature study), lesion: several types, types named in the paper, dosed 77 weeks, study length 94 weeks) 932 mg/kg/day (inactive); (mouse, strain CD-1 HaM/ICR, females, in feed, site: liver, lesion: several types, types named in the paper, dosed 77 weeks, study length 94 weeks) 2040 mg/kg/day (inactive); (mouse, strain CD-1 HaM/ICR, females, in feed, site: lung, lesion: several types, types named in the paper, dosed 77 weeks, study length 94 weeks) 9340 mg/kg/day (inactive); (mouse, strain CD-1 HaM/ICR, males, in feed, site: any site (literature study), lesion: several types, types named in the paper, dosed 73 weeks, study length 94 weeks) 439 mg/kg/day (inactive); (mouse, strain CD-1 HaM/ICR, males, in feed, site: liver, lesion: several types, types named in the paper, dosed 73 weeks, study length 94 weeks) 3200 mg/kg/day (inactive); (mouse, strain CD-1 HaM/ICR, males, in feed, site: lung, lesion: several types, types named in the paper, dosed 73 weeks, study length 94 weeks) 304 mg/kg/day (inactive). In addition, the TD50 (rat, strain Charles River CD (Sprague-Dawley), males, in feed, site: any site (literature study), lesion: several types, types named in the paper, dosed 77 weeks, study length 94 weeks) is 16.3 mg/kg/day (inactive). Further, the carcinogen call (rat, strain Charles River CD (Sprague-Dawley), males, in feed, site: liver, lesion: several types, types named in the paper, dosed 77 weeks, study length 94 weeks) is “negative (inactive)”.
Consider `CC(=O)Nc1nnc(-c2ccc([N+](=O)[O-])o2)s1`, for which the TD50 by setting is: (mouse, strain Swiss, females, in feed, site: any site (literature study), lesion: several types, types named in the paper, dosed 46 weeks, study length 55 weeks) 6.9 mg/kg/day; (mouse, strain Swiss, females, in feed, site: forestomach, lesion: several types, types named in the paper, dosed 46 weeks, study length 55 weeks) 6.74 mg/kg/day; (mouse, strain Swiss, females, in feed, site: forestomach, lesion: squamous-cell carcinoma, dosed 46 weeks, study length 55 weeks) 104 mg/kg/day; (mouse, strain Swiss, females, in feed, site: forestomach, lesion: squamous-cell papilloma, dosed 46 weeks, study length 55 weeks) 14.1 mg/kg/day; (rat, strain Sprague-Dawley, females, in feed, site: all sites, lesion: lymphoblastic lymphoma, dosed 40 weeks, study length 59 weeks) 111 mg/kg/day; (rat, strain Sprague-Dawley, females, in feed, site: forestomach, lesion: several types, types named in the paper, dosed 40 weeks, study length 59 weeks) 8.84 mg/kg/day. Also, the TD50 (rat, strain Sprague-Dawley, females, in feed, site: forestomach, lesion: squamous-cell papilloma, dosed 40 weeks, study length 59 weeks) stood at 11.6 mg/kg/day; the TD50 (rat, strain Sprague-Dawley, females, in feed, site: intestine, lesion: hemangioendothelial sarcoma, dosed 40 weeks, study length 59 weeks) is 18.6 mg/kg/day; the TD50 (rat, strain Sprague-Dawley, females, in feed, site: kidney/pelvis, lesion: transitional-cell carcinoma, dosed 40 weeks, study length 59 weeks) is 16.9 mg/kg/day; the TD50 (rat, strain Sprague-Dawley, females, in feed, site: liver, lesion: hemangioendothelial sarcoma, dosed 40 weeks, study length 59 weeks) is 22.9 mg/kg/day; the TD50 (rat, strain Sprague-Dawley, females, in feed, site: lung, lesion: alveolar-cell carcinoma, dosed 40 weeks, study length 59 weeks) is 15.3 mg/kg/day; the TD50 (rat, strain Sprague-Dawley, females, in feed, site: lung, lesion: hemangioendothelial sarcoma, dosed 40 weeks, study length 59 weeks) is 52.3 mg/kg/day. Also, the TD50 is, setting by setting: (rat, strain Sprague-Dawley, females, in feed, site: mammary gland, lesion: adenocarcinoma, dosed 40 weeks, study length 59 weeks) 37.7 mg/kg/day; (rat, strain Sprague-Dawley, females, in feed, site: mammary gland, lesion: several types, types named in the paper, dosed 40 weeks, study length 59 weeks) 43.3 mg/kg/day; (rat, strain Sprague-Dawley, females, in feed, site: pancreas, lesion: hemangioendothelial sarcoma, dosed 40 weeks, study length 59 weeks) 81.6 mg/kg/day; (rat, strain Sprague-Dawley, females, in feed, site: several sites, sites named in the paper, lesion: hemangioendothelial sarcoma, dosed 40 weeks, study length 59 weeks) 10.6 mg/kg/day; (rat, strain Sprague-Dawley, females, in feed, site: small intestine, lesion: adenocarcinoma, dosed 40 weeks, study length 59 weeks) 111 mg/kg/day; (rat, strain Sprague-Dawley, females, in feed, site: small intestine, lesion: leiomyosarcoma, dosed 40 weeks, study length 59 weeks) 111 mg/kg/day.

Source of the values: PubChem BioAssay AID1745844 (Carcinogenic Potency Database (CPDB), 2022).
